{"source": "ChEMBL document CHEMBL5137017", "about": "“Identification of NVP-CLR457 as an Orally Bioavailable Non-CNS-Penetrant pan-Class IA Phosphoinositol-3-Kinase Inhibitor” (J Med Chem, 2022)", "key": {"[1]": {"molecular_target": "Phosphatidylinositol 4,5-bisphosphate 3-kinase catalytic subunit beta isoform (Homo sapiens, UniProt P42338)", "sequence (P42338 whole entry, canonical isoform)": "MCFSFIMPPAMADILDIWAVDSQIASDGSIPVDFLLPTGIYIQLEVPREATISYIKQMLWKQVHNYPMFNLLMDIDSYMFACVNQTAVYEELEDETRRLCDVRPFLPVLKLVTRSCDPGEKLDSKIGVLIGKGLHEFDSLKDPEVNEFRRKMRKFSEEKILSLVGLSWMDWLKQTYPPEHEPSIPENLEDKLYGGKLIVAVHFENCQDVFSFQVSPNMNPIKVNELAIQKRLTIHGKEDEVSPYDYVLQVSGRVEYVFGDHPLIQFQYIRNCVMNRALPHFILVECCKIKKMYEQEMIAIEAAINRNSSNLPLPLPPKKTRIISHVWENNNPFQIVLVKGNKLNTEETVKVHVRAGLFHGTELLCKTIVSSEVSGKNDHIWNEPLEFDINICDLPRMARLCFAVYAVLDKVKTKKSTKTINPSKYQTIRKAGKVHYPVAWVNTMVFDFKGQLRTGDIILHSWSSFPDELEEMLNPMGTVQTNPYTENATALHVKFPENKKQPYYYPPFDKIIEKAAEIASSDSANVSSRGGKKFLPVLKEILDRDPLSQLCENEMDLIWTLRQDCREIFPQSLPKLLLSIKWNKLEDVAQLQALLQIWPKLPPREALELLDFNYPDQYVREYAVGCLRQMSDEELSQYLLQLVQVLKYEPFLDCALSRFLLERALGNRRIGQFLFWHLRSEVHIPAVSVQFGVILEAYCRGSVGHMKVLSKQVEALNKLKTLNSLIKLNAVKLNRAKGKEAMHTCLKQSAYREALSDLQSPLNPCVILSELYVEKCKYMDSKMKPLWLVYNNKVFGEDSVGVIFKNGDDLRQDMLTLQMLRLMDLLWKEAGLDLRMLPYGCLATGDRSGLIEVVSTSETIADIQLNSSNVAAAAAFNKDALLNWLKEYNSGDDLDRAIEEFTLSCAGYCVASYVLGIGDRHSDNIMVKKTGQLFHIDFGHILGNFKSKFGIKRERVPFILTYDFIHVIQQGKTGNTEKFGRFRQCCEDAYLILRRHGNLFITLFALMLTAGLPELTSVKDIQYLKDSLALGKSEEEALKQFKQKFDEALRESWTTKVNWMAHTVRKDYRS", "assay": "Inhibition of PI3Kbeta (unknown origin) using L-alpha-phosphatidylinositol as substrate in presence of ATP by Kinase Glo luminescence assay"}, "Tubulin (Sus scrofa)": {"molecular_target": "Tubulin (Sus scrofa) (UniProt P02554+P02550)", "sequence (P02550 whole entry, looked up)": "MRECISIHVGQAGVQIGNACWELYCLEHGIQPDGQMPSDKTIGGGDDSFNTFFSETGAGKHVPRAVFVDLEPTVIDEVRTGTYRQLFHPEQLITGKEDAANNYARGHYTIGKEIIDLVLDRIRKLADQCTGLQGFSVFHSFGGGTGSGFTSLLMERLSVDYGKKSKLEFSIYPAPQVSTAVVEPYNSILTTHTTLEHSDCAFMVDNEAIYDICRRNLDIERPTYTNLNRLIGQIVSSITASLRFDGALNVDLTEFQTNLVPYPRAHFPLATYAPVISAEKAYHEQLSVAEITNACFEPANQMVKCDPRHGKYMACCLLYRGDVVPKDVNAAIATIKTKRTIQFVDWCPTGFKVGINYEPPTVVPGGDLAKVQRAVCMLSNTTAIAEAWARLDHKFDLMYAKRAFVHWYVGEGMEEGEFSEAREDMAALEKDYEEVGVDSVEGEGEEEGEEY", "sequence (P02554 whole entry, looked up)": "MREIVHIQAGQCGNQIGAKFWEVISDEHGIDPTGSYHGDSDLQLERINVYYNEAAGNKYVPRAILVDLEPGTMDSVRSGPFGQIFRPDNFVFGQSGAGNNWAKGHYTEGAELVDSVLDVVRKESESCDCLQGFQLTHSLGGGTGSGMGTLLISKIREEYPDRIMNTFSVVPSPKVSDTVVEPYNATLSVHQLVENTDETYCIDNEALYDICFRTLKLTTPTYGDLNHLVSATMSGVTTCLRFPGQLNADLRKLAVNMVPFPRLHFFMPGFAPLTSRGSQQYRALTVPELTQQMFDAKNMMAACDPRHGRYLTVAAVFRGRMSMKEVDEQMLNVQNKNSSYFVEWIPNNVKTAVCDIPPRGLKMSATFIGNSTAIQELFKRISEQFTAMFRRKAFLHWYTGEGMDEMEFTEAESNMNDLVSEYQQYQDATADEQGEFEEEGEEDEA", "assay": "Inhibition of porcine tubulin polymerization assessed as inhibition of microtubule polymerization at 15 to 30 uM measured after 1 hr", "type": "protein assay", "conditions": "dose 15-30 µM"}, "[2]": {"assay": "Inhibition of wild type PI3K in human CAL-85-1 cells assessed as reduction in phosphorylation of AKT at Ser473 residue by Western blot analysis", "type": "cell-based"}, "[3]": {"assay": "In vivo Inhibition of AKT phosphorylation at Ser473 residue in athymic nude mouse xenografted with rat Rat1-myr-p110alpha cells at 20 mg/kg, po qd measured after 14 hrs", "type": "functional"}, "[4]": {"assay": "Cmax in athymic nude mouse xenografted with rat Rat1 cells expressing myr-p110alpha at 20 mg/kg, po measured after 8 days by LC-MS/MS analysis", "type": "ADME, organism-based", "set-up": "time 8 day, dose 20 mg/kg, route po", "conditions": "in vivo"}, "[5]": {"assay": "Toxicity in athymic nude mouse xenografted with rat Rat1 cells expressing myr-p110alpha assessed as body weight change at 20 mg/kg,po qd measured after 14 to 22 days", "type": "organism-based", "conditions": "in vivo, time 14-22 day"}, "[6]": {"assay": "Inhibition of wild type PI3K in human HCC1806 cells assessed as reduction in phosphorylation of AKT at Ser473 residue by Western blot analysis", "type": "cell-based"}, "[7]": {"assay": "Inhibition of wild type PI3K in human Hs-578T cells assessed as reduction in phosphorylation of AKT at Ser473 residue by Western blot analysis", "type": "cell-based"}, "[8]": {"assay": "Inhibition of PI3K PTEN mutant in human HCC70 cells assessed as reduction in phosphorylation of AKT at Ser473 residue by Western blot analysis", "type": "cell-based"}, "[9]": {"assay": "AUC in Sprague-Dawley rat at 1 mg/kg, iv measured for 0.083 to 48 hrs by LC-MS/MS analysis", "type": "ADME, organism-based", "set-up": "time upper 48 hrs, dose 1 mg/kg, time lower 0.083 hrs, route iv", "conditions": "in vivo"}, "[10]": {"assay": "Tlast in athymic nude mouse xenografted with rat Rat1 cells expressing myr-p110alpha at 20 mg/kg, po measured after 8 days by LC-MS/MS analysis", "type": "ADME, organism-based", "conditions": "in vivo, 192 h, time 8 day"}, "[11]": {"assay": "Volume of distribution at steady state in OF1 mouse at 10 mg/kg,po or 3 mg/kg,iv measured upto 24 hrs by LC-MS/MS analysis", "type": "ADME, organism-based", "conditions": "in vivo"}, "[12]": {"assay": "Oral bioavailability in Sprague-Dawley rat at 3 mg/kg measured for 0.25 to 24 hrs by LC-MS/MS analysis", "type": "ADME, organism-based", "conditions": "in vivo, time 0.25-24 hrs"}, "[13]": {"assay": "Dose normalized AUC in beagle dog at 0.3 mg/kg, po measured upto 24 hrs by LC-MS/MS analysis", "type": "ADME, organism-based, Canis lupus familiaris", "conditions": "in vivo"}, "[14]": {"assay": "Stability in mouse liver microsomes assessed as hepatic extraction preincubated for 3 mins followed by NADPH addition and measured after 60 mins", "type": "ADME, Microsome", "conditions": "time 63 min, read-out: ERH"}, "[15]": {"assay": "Effect on blood glucose level in athymic nude mouse xenografted with rat Rat1 cells expressing myr-p110alpha at 3 to 20 mg/kg, po qd measured upto 14 hrs by glucometer analysis", "type": "toxicity, organism-based", "conditions": "in vivo, dose 3-20 mg/kg"}, "Rat1": {"system": "Rat1", "assay": "Antitumor activity at rat Rat1 cells expressing myr-p110alpha xenografted in athymic nude mouse assessed as T/C ratio at 40 mg/kg, po bid measured after 15 to 24 days", "type": "functional", "conditions": "time 15-24 day"}, "[16]": {"assay": "Plasma protein binding in beagle dog plasma at 0.3 mg/kg,po or 0.1 mg/kg,iv measured after 4 hrs by rapid equilibrium dialysis method", "type": "ADME, organism-based, Canis lupus familiaris", "conditions": "read-out: PPB (converted)"}, "[17]": {"assay": "AUC(0 to Tlast) in athymic nude mouse xenografted with rat Rat1 cells expressing myr-p110alpha at 3 mg/kg, po measured after 8 days by LC-MS/MS analysis", "type": "ADME, organism-based", "set-up": "time 8 day, dose 3 mg/kg, route po", "conditions": "in vivo"}, "[18]": {"assay": "Volume of distribution at steady state in Sprague-Dawley rat at 3 mg/kg, po or iv measured upto 24 hrs by LC-MS/MS analysis", "type": "ADME, organism-based", "conditions": "in vivo"}, "[19]": {"assay": "Stability in human liver microsomes assessed as hepatic extraction preincubated for 3 mins followed by NADPH addition and measured after 60 mins", "type": "ADME, Microsome", "conditions": "read-out: ERH"}, "[20]": {"assay": "Cmax in athymic nude mouse xenografted with rat Rat1 cells expressing myr-p110alpha at 10 mg/kg, po measured after 8 days by LC-MS/MS analysis", "type": "ADME, organism-based", "set-up": "dose 10 mg/kg, time 8 day, route po", "conditions": "in vivo"}, "[21]": {"assay": "Dose normalized AUC(0 to Tlast) in athymic nude mouse xenografted with rat Rat1 cells expressing myr-p110alpha at 10 mg/kg, po measured after 8 days by LC-MS/MS analysis", "type": "ADME, organism-based", "conditions": "in vivo, 192 h, time 8 day"}, "[22]": {"assay": "Inhibition of PI3K PTEN mutant in human HCC1395 cells assessed as reduction in phosphorylation of AKT at Ser473 residue by Western blot analysis", "type": "cell-based"}, "[23]": {"assay": "Tmax in Beagle dog at 6 mg/kg, po measured upto 24 hrs using crystalline form of sample by LC-MS/MS analysis", "type": "ADME, organism-based, Canis lupus familiaris", "conditions": "in vivo"}, "[24]": {"assay": "Dose normalized AUC in Sprague-Dawley rat at 100 mg/kg, po measured upto 24 hrs by LC-MS/MS analysis", "type": "ADME, organism-based", "conditions": "in vivo"}, "[25]": {"molecular_target": "Phosphatidylinositol 4,5-bisphosphate 3-kinase catalytic subunit alpha isoform (Homo sapiens, UniProt P42336)", "sequence (P42336 whole entry, canonical isoform)": "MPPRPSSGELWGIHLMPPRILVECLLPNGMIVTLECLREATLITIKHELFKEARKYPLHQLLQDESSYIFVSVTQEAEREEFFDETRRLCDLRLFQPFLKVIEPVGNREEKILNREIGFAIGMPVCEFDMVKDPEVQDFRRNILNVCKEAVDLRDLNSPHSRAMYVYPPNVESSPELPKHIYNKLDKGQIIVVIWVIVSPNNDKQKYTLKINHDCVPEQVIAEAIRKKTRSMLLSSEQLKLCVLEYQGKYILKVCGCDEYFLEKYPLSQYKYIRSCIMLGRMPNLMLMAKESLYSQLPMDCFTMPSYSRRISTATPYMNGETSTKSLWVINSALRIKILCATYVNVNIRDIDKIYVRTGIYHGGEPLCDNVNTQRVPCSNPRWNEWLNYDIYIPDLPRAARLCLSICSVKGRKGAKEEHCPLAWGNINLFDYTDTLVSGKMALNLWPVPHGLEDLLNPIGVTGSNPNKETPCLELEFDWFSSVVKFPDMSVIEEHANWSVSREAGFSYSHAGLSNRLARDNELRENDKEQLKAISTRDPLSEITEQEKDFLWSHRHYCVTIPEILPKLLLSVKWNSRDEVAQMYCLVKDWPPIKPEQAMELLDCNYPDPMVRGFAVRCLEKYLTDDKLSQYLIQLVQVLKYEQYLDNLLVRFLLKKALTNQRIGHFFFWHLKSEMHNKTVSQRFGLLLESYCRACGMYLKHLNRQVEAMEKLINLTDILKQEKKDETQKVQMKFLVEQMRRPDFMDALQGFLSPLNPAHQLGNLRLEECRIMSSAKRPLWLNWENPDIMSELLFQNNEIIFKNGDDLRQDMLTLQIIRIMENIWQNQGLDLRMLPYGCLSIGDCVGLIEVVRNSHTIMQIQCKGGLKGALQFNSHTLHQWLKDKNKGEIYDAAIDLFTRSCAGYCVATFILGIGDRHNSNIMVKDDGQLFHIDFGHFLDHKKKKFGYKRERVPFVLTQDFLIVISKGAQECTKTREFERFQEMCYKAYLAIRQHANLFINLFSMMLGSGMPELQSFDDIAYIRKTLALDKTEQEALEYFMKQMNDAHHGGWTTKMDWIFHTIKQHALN", "assay": "Inhibition of PI3Kalpha (unknown origin) using L-alpha-phosphatidylinositol as substrate in presence of ATP by Kinase Glo luminescence assay"}, "[26]": {"assay": "Solubility of compound in FaSSIF at pH 6.5 measured upto 120 mins by HPLC analysis", "type": "physicochemical"}, "[27]": {"assay": "Half life in Sprague-Dawley rat at 3 mg/kg, po or iv measured upto 24 hrs by LC-MS/MS analysis", "type": "ADME, organism-based", "conditions": "in vivo"}, "[28]": {"assay": "Cmax in beagle dog at 0.3 mg/kg,po or 0.1 mg/kg,iv measured upto 24 hrs by LC-MS/MS analysis", "type": "ADME, organism-based, Canis lupus familiaris", "set-up": "dose 0.3 mg/kg, time < 24 hrs, route po", "conditions": "in vivo"}, "Mus musculus": {"system": "Mus musculus", "assay": "In vivo Inhibition of AKT phosphorylation at Ser473 residue in athymic nude mouse xenografted with rat Rat1-myr-p110alpha cells at 10 mg/kg, po qd measured after 1 to 4 hrs", "type": "functional, organism-based", "conditions": "time 1-4 hrs"}, "[29]": {"molecular_target": "Serine/threonine-protein kinase mTOR (Mus musculus, UniProt Q9JLN9)", "assay": "Inhibition of mTOR in Tscl-/- null mouse MEF assessed as reduction on RPS6 phosphorylation at Ser235/236 residue by alpha-screen assay", "type": "cell-based"}, "[30]": {"assay": "1-octanol, logP of the compound at pH 7.4", "type": "physicochemical"}, "[31]": {"assay": "Inhibition of wild type PI3K in human HCC1187 cells assessed as reduction in phosphorylation of AKT at Ser473 residue by Western blot analysis", "type": "cell-based"}, "[32]": {"assay": "Brain to blood ratio in OF1 mouse at 1 mg/kg, iv measured at 1 hr post dose by LC-MS/MS analysis", "type": "ADME, organism-based", "conditions": "brain and blood, read-out: BBR"}, "[33]": {"assay": "Solubility of compound in FaSSIF at pH 5.8 measured upto 120 mins by HPLC analysis", "type": "physicochemical"}, "[34]": {"assay": "AUC(0 to Tlast) in athymic nude mouse xenografted with rat Rat1 cells expressing myr-p110alpha at 20 mg/kg, po measured after 8 days by LC-MS/MS analysis", "type": "ADME, organism-based", "set-up": "dose 20 mg/kg, time 8 day, route po", "conditions": "in vivo"}, "[35]": {"assay": "Aqueous solubility of compound in buffer at pH 6.8 by HPLC analysis", "type": "physicochemical"}}, "note": "Activity calls are given as the source filed them. The rule behind the calls is not given here.", "data": [{"smiles": "C[C@H]1OC(=O)N(c2nc(-c3cnc(N)nc3C(F)(F)F)cc(N3CCOCC3)n2)[C@H]1CO", "values": [{"measurement": "IC50", "setting": "[1]", "value": 8.3, "unit": "nM"}, {"measurement": "inhibition", "setting": "Tubulin (Sus scrofa)", "value": "Active"}, {"measurement": "IC50", "setting": "[2]", "value": 30, "unit": "nM"}, {"measurement": "inhibition in vivo at 20 mg/kg", "setting": "[3]", "value": 76, "unit": "%"}, {"measurement": "Cmax", "setting": "[4]", "value": 2910, "unit": "nM"}, {"measurement": "Activity", "setting": "[5]", "value": "Non-Toxic"}, {"measurement": "IC50", "setting": "[6]", "value": 204, "unit": "nM"}, {"measurement": "IC50", "setting": "[7]", "value": 27, "unit": "nM"}, {"measurement": "IC50", "setting": "[8]", "value": 56, "unit": "nM"}, {"measurement": "AUC", "setting": "[9]", "value": 1.77, "unit": "µM·h"}, {"measurement": "Tlast", "setting": "[10]", "value": 14, "unit": "h"}, {"measurement": "Vdss", "setting": "[11]", "value": 2, "unit": "L/kg"}, {"measurement": "bioavailability", "setting": "[12]", "value": 97, "unit": "%"}, {"measurement": "AUC/dose", "setting": "[13]", "value": 12970, "unit": "nM·h"}, {"measurement": "hepatic extraction ratio at 1 h", "setting": "[14]", "value": 0.34}, {"measurement": "Activity", "setting": "[15]", "value": "Non-Toxic"}, {"measurement": "T/C", "setting": "Rat1", "value": -0.86}, {"measurement": "fraction unbound at 4 h", "setting": "[16]", "value": 0.29}, {"measurement": "AUC(0-t) at 192 h", "setting": "[17]", "value": 5.5, "unit": "µM·h"}, {"measurement": "Vdss", "setting": "[18]", "value": 4.4, "unit": "L/kg"}, {"measurement": "hepatic extraction ratio at 1 h", "setting": "[19]", "value": 0.37}, {"measurement": "Cmax", "setting": "[20]", "value": 2280, "unit": "nM"}, {"measurement": "AUC/dose", "setting": "[21]", "value": 1.57, "unit": "µM·h"}, {"measurement": "IC50", "setting": "[22]", "value": 169, "unit": "nM"}, {"measurement": "Tmax", "setting": "[23]", "value": 4, "unit": "h"}, {"measurement": "AUC/dose", "setting": "[24]", "value": 784, "unit": "nM·h"}, {"measurement": "IC50", "setting": "[25]", "value": 12, "unit": "nM"}, {"measurement": "solubility at 2 h", "setting": "[26]", "value": 31, "unit": "µM"}, {"measurement": "half-life", "setting": "[27]", "value": 198, "unit": "min"}, {"measurement": "Cmax", "setting": "[28]", "value": 1120, "unit": "nM"}, {"measurement": "inhibition", "setting": "Mus musculus", "value": "Active"}, {"measurement": "IC50", "setting": "[29]", "value": 1630, "unit": "nM"}, {"measurement": "logD", "setting": "[30]", "value": 2}, {"measurement": "IC50", "setting": "[31]", "value": 94, "unit": "nM"}, {"measurement": "Kp at 1 h", "setting": "[32]", "value": 0.05}, {"measurement": "solubility at 2 h", "setting": "[33]", "value": 51, "unit": "µM"}, {"measurement": "AUC(0-t) at 192 h", "setting": "[34]", "value": 26, "unit": "µM·h"}, {"measurement": "solubility", "setting": "[35]", "value": 29, "unit": "µM"}]}]}
